The target of this test is T1, human RORγt (Homo sapiens, UniProt P51449).
T1 construct: expressed in transfected cells; host or cells: human CD4+ T cells (cord blood or adult blood), lentiviral HDV-IRES-GFP/HSA vectors
T1 sequence (P51449 1-497 isoform P51449-2): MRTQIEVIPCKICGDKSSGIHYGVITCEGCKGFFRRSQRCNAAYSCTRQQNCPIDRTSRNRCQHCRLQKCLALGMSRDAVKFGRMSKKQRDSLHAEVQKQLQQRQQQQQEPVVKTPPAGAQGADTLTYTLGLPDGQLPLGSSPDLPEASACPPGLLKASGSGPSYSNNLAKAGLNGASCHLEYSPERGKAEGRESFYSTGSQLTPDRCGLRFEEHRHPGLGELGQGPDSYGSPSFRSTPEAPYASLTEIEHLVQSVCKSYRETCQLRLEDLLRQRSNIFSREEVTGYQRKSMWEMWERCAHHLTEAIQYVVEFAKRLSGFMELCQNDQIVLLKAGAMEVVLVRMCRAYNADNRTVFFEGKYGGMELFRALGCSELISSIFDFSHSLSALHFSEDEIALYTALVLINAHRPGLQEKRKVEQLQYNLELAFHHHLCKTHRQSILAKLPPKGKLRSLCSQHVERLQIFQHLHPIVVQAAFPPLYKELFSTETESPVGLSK
Description: IL-17a induction in human CD4+ T cells transduced with RORαd, RORβ or RORγt. The class given is cell-based. The protocol: GFP expressing cells were gated for analysis. DMSO, Dig(dhd) (40 μM) or Dig(sal) (10 μM) was added 6-8 h after viral transduction. c, Flow cytometry of the production of IL-17a and IFN-γ by human naive cord blood T cells cultured for six days in the presence of IL-2, IL-23, and IL-1β, with various concentrations of TGF-β. DMSO, Dig(dhd), or Dig(sal) at indicated concentrations (μM) was added 16 h after cytokine addition.
Blood samples were obtained from the New York Blood Center. Mononuclear cells were prepared from buffy coats from healthy adult donors or from cord blood, using FicollPAQUE gradients. CD4^+ T cells were magnetically selected (autoMACS, Miltenyi). Adult memory CD4^+ T cell subsets were further purified as CD3^+CD4^+CD25^− CD45RO^+CCR6^+CD161^+ by cell sorting on a FACSAria (BD). Naive CD4^+ T cells were isolated from cord blood as CD3^+CD4^+CD45RA^+HLA-DR^−CD25^−DAPI^−. Memory cells were activated with anti-CD3/CD28 coated beads (1 bead/cell) in T cell media (see above) supplemented with 100 U/mL IL-2 (Peprotech), 10 ng/mL IL-1b and 10 ng/mL IL-23 (eBioscience). Naive cells were activated with anti-CD3/CD28 beads and cultured with the same cytokines, and TGF-b (0, 0.1, 1, or, 10 ng/mL) (Peprotech), in XVIVO-20 (Lonza) media. […] Naive CD4^+ T cells, cultured in XVIVO-20 media supplemented 100 U/mL IL-2 (Peprotech), were transduced with RORad-IRES-GFP or RORγt-IRES-GFP on day 1 and analyzed on day 6. GFP expressing cells were gated for analysis. DMSO or compounds were added 6-8 hours after the viral transduction.
Blood samples were obtained from the New York Blood Center. Mononuclear cells were prepared from buffy coats from healthy adult donors or from cord blood, using FicollPAQUE gradients. CD4^+ T cells were magnetically selected (autoMACS, Miltenyi). Adult memory CD4+ T cell subsets were further purified as CD3^+CD4^+CD25^−CD45RO^+CCR6^+CD161^+ by cell sorting on a FACSAria (BD). […] Naive CD4+ T cells, cultured in XVIVO-20 media supplemented with 100 U/mL IL-2 (Peprotech), were transduced with RORαd-IRES-GFP or RORγt-IRES-GFP on day 1 and analyzed on day 6. […]

Consider two compounds from patent publication US9505798B2, “Steroid compounds as RORyt modulators and uses thereof” (New York University, priority 2010, dated 2016).

SMILES strings stand for the structures.

`CC1O[C@@H](OC2C(C)O[C@H](OC3C(C)O[C@@H](O[C@H]4CC[C@@]5(C)[C@H](CC[C@@H]6[C@@H]5C[C@@H](O)[C@]5(C)[C@@H](C(CO)CCO)CC[C@]65O)C4)C[C@H]3O)C[C@H]2O)C[C@@H](O)C1O` (some centres unmarked) [Compound 13, 20,22-Dihydrodigoxin-21,23-diol]: the “RORγt-mediated IL-17a induction (versus RORαd)” value (40 μM, FIG. 3b) is given as “selectively suppressed”.
With `C[C@H]1O[C@@H](O[C@H]2[C@@H](O)C[C@H](O[C@H]3[C@@H](O)C[C@H](O[C@H]4CC[C@@]5(C)[C@H](CC[C@@H]6[C@@H]5C[C@@H](O)[C@]5(C)[C@@H](C7=CC(=O)OC7)CC[C@]65O)C4)O[C@@H]3C)O[C@@H]2C)C[C@H](O)[C@@H]1O` [Digoxin], the “RORαd-, β- or γt-mediated induction of IL-17a” value (human T cells expressing murine Na+/K+-ATPase) is “inhibited only RORγt-mediated induction of IL-17a”.
